Counter-ions that a name gives are not always drawn. Like-named read-outs stand apart in the source and are kept apart here.
Columns and labels:
[1] = test system: NCI-H292 lung cancer cells; assay: FDA drug screening, complete media vs cholesterol-free media without statin (TABLE 1); type: cell-based, human
[2] = test system: NCI-H292 lung cancer cells; assay: FDA drug screening, complete media vs cholesterol-free media with simvastatin (TABLE 2); type: cell-based, human
[3] = NCI-H292 cells, cholesterol-free media without statin, FDA drug library screen
[4] = NCI-H292 cells, complete media, FDA drug library screen
[5] = complete vs cholesterol-free media, >0 enhanced anti-cancer activity, about 0 neutral, <0 antagonist
[6] = NCI-H292 cells, cholesterol-free media with simvastatin 0.04 μM, FDA drug library screen (TABLE 2)
[7] = NCI-H292 cells, complete media, FDA drug library screen (TABLE 2)
[8] = complete media minus cholesterol-free media + simvastatin (0.04 μM), >0 enhanced anti-cancer activity, about 0 neutral, <0 antagonist
[9] = NCI-H292 cells, FDA library drug in cholesterol-free media with simvastatin 0.04 μM
[10] = NCI-H292 cells, FDA library drug in complete media
[11] = complete media vs cholesterol-free media + simvastatin (0.04 μM), >0 enhanced anti-cancer activity, about 0 neutral, <0 antagonist
[12] = Complete minus Cholesterol-free, >0 enhanced anti-cancer activity, about 0 neutral, <0 antagonist
[13] = NCI-H292 cells, cholesterol-free media without statin
[14] = NCI-H292 cells, FDA drug library screen, cholesterol-free media with simvastatin 0.04 μM
[15] = NCI-H292 cells, FDA drug library screen, complete media
[16] = Complete minus Cholesterol-free, greater than 0 enhanced anti-cancer activity, about 0 neutral, below 0 antagonists
[17] = NCI-H292 cells in cholesterol-free media without statin
[18] = NCI-H292 cells in complete media
[19] = complete media minus cholesterol-free media + simvastatin, >0 enhanced anti-cancer activity, about 0 neutral, <0 antagonist
[20] = NCI-H292 cells, drug in cholesterol-free media with simvastatin 0.04 μM
[21] = NCI-H292 cells, drug in complete media
[22] = complete vs cholesterol-free media, […]
[23] = Complete minus Cholesterol-free, […]
[24] = complete media vs cholesterol-free media + simvastatin (0.04 μM), […]
[25] = Complete minus Cholesterol-free, greater than 0 enhanced anti-cancer activity, about 0 neutral, below 0 antagonist
[26] = NCI-H292 cells, FDA drug library screen, cholesterol-free media without statin
[27] = NCI-H292 cells, cholesterol-free media with simvastatin 0.04 μM, cell growth value in FDA drug screen
[28] = NCI-H292 cells, complete media, cell growth value in FDA drug screen

Cc1nccn1CCC(C(N)=O)(c1ccccc1)c1ccccc1 [Imidafenacin]
Cholesterol-free [1, 3]: 0.8368
Complete [1, 4]: 1.001
Difference [1, 5]: 0.16
Cholesterol-free media + simvastatin (0.04 μM) [2, 6]: 1.409
Complete Media [2, 7]: 1.383
Difference [2, 8]: −0.03

CCOC(=O)[C@H](CCc1ccccc1)N[C@@H](C)C(=O)N1C(=O)N(C)C[C@H]1C(=O)O [Imidapril (hydrochloride)]
Cholesterol-free [1, 3]: 0.9489
Complete [1, 4]: 1.458
Difference [1, 5]: 0.51
Cholesterol-free media + simvastatin (0.04 μM) [2, 9]: 1.282
Complete Media [2, 10]: 0.8523
Difference [2, 11]: −0.43

C[C@@H](O)[C@H]1C(=O)N2C(C(=O)O)=C(SCCN=CN)C[C@H]12 [Imipenem monohydrate]
Difference [1, 12]: −0.03
Cholesterol-free [1, 3]: 1.1
Complete [1, 4]: 1.066
Cholesterol-free media + simvastatin (0.04 μM) [2, 6]: 0.9916
Complete Media [2, 7]: 0.9548
Difference [2, 8]: −0.04

CN(C)CCCN1c2ccccc2CCc2ccccc21 [Imipramine (hydrochloride)]
Difference [1, 12]: −0.21
Cholesterol-free [1, 13]: 1.052
Complete ([1]; NCI-H292 cells, complete media): 0.8395
Cholesterol-free media + simvastatin (0.04 μM) [2, 14]: 0.9417
Complete Media [2, 15]: 0.8694
Difference [2, 11]: −0.07

CC(C)Cn1cnc2c(N)nc3ccccc3c21 [Imiquimod (hydrochloride)]
Cholesterol-free [1]: 0.8815
Complete [1]: 1.16
Difference [1]: 0.28
Cholesterol-free media + simvastatin (0.04 μM) [2]: 1.323
Complete Media [2]: 1.16
Difference [2]: −0.16

CC(C)Cn1cnc2c(N)nc3ccccc3c21 [Imiquimod]
Cholesterol-free [1]: 0.6962
Complete [1]: 1.326
Difference [1]: 0.63
Cholesterol-free media + simvastatin (0.04 μM) [2]: 1.141
Complete Media [2]: 0.8713
Difference [2]: −0.27

CCCN1CC(c2ccc(S(C)(=O)=O)cc2)=C(c2ccc(C)cc2)C1=O [Imrecoxib]
Difference [1, 16]: −0.54
Cholesterol-free [1, 17]: 1.763
Complete [1, 18]: 1.221
Cholesterol-free media + simvastatin (0.04 μM) [2, 6]: 1.183
Complete Media [2, 7]: 1.141
Difference [2, 8]: −0.04

CCc1cc2c(cc1CC)CC(NC[C@H](O)c1ccc(O)c3[nH]c(=O)ccc13)C2 [Indacaterol]
Cholesterol-free [1, 3]: 0.6776
Complete [1, 4]: 1.376
Difference [1, 5]: 0.70
Cholesterol-free media + simvastatin (0.04 μM) [2, 14]: 0.7696
Complete Media [2, 15]: 1.1
Difference [2, 19]: 0.33

CC1Cc2ccccc2N1NC(=O)c1ccc(Cl)c(S(N)(=O)=O)c1 (centres unmarked) [Indapamide]
Difference [1, 16]: −0.63
Cholesterol-free [1, 17]: 1.388
Complete [1, 18]: 0.7593
Cholesterol-free media + simvastatin (0.04 μM) [2, 20]: 1.217
Complete Media [2, 21]: 0.9676
Difference [2, 11]: −0.25

O=C1Nc2ccccc2/C1=C1/Nc2ccccc2C1=O [Indirubin]
Difference [1, 12]: −0.04
Cholesterol-free [1, 3]: 0.7727
Complete [1, 4]: 0.7337
Cholesterol-free media + simvastatin (0.04 μM) [2, 9]: 0.8483
Complete Media [2, 10]: 0.5782
Difference [2, 11]: −0.27

COc1ccc2c(c1)c(CC(=O)O)c(C)n2C(=O)c1ccc(Cl)cc1 [Indomethacin (sodium hydrate)]
Cholesterol-free [1, 13]: 1.164
Complete ([1]; NCI-H292 cells, complete media): 0.8005
Difference ([1]; complete vs cholesterol-free media, greater than 0 enhanced anti-cancer activity, about 0 neutral, below 0 antagonists): −0.36
Cholesterol-free media + simvastatin (0.04 μM) [2, 6]: 0.9744
Complete Media [2, 7]: 0.911
Difference [2, 8]: −0.06

COc1ccc2c(c1)c(CC(=O)O)c(C)n2C(=O)c1ccc(Cl)cc1 [Indomethacin]
Difference [1, 16]: −0.82
Cholesterol-free [1, 17]: 1.574
Complete [1, 18]: 0.7546
Cholesterol-free media + simvastatin (0.04 μM) [2, 14]: 1.269
Complete Media [2, 15]: 1.474
Difference [2, 19]: 0.20

C/C=C(/C)C(=O)O[C@H]1C(C)=C[C@]23C(=O)[C@@H](C=C(CO)[C@@H](O)[C@]12O)[C@H]1[C@@H](C[C@H]3C)C1(C)C [Ingenol Mebutate]
Cholesterol-free [1, 13]: 0.6991
Complete ([1]; NCI-H292 cells, complete media): 0.3918
Difference [1, 22]: −0.31
Cholesterol-free media + simvastatin (0.04 μM) ([2]; NCI-H292 cells, cholesterol-free media with simvastatin 0.04 μM, […]): 0.2962
Complete Media ([2]; NCI-H292 cells, complete media, […]): 0.4169
Difference ([2]; complete media minus cholesterol-free media + simvastatin, […]): 0.12

CC1=C[C@]23C(=O)[C@@H](C=C(CO)[C@@H](O)[C@]2(O)[C@H]1O)[C@H]1[C@@H](C[C@H]3C)C1(C)C [Ingenol]
Difference [1, 23]: −0.29
Cholesterol-free [1, 13]: 0.932
Complete ([1]; NCI-H292 cells, complete media): 0.6376
Cholesterol-free media + simvastatin (0.04 μM) [2, 14]: 1.056
Complete Media [2, 15]: 0.969
Difference [2, 24]: −0.09

CC(=O)Nc1ccc(C(=O)O)cc1.CC(=O)Nc1ccc(C(=O)O)cc1.CC(=O)Nc1ccc(C(=O)O)cc1.CC(O)CN(C)C.CC(O)CN(C)C.CC(O)CN(C)C.O=c1[nH]cnc2c1ncn2[C@@H]1O[C@H](CO)[C@@H](O)[C@H]1O [Inosine pranobex]
Difference [1, 23]: −0.24
Cholesterol-free [1, 13]: 1.096
Complete ([1]; NCI-H292 cells, complete media): 0.8599
Cholesterol-free media + simvastatin (0.04 μM) [2, 20]: 1.233
Complete Media [2, 21]: 0.9799
Difference [2, 24]: −0.25

O=c1[nH]cnc2c1ncn2[C@@H]1O[C@H](CO)[C@@H](O)[C@H]1O [Inosine]
Difference [1, 12]: 0.02
Cholesterol-free [1, 3]: 0.9203
Complete [1, 4]: 0.941
Cholesterol-free media + simvastatin (0.04 μM) [2, 14]: 0.924
Complete Media [2, 15]: 1.085
Difference [2, 19]: 0.16

O=C(CCCCC(=O)Nc1c(I)cc(I)c(C(=O)O)c1I)Nc1c(I)cc(I)c(C(=O)O)c1I [Iodipamide]
Difference [1, 25]: −0.08
Cholesterol-free [1, 26]: 0.9527
Complete [1, 15]: 0.876
Cholesterol-free media + simvastatin (0.04 μM) [2, 20]: 1.387
Complete Media [2, 21]: 1.135
Difference [2, 11]: −0.25

CC(=O)N(CC(O)CN(C(C)=O)c1c(I)c(C(=O)NCC(O)CO)c(I)c(C(=O)NCC(O)CO)c1I)c1c(I)c(C(=O)NCC(O)CO)c(I)c(C(=O)NCC(O)CO)c1I (centres unmarked) [Iodixanol]
Cholesterol-free [1, 3]: 0.9782
Complete [1, 4]: 1.054
Difference [1, 5]: 0.08
Cholesterol-free media + simvastatin (0.04 μM) [2, 6]: 1.197
Complete Media [2, 7]: 1.164
Difference [2, 8]: −0.03

CC(=O)N(CC(O)CO)c1c(I)c(C(=O)NCC(O)CO)c(I)c(C(=O)NCC(O)CO)c1I (centres unmarked) [Iohexol]
Difference [1, 25]: −0.14
Cholesterol-free [1, 26]: 1.062
Complete [1, 15]: 0.9228
Cholesterol-free media + simvastatin (0.04 μM) [2, 9]: 1.632
Complete Media [2, 10]: 0.8317
Difference [2, 11]: −0.80

C[C@H](O)C(=O)Nc1c(I)c(C(=O)NC(CO)CO)c(I)c(C(=O)NC(CO)CO)c1I [Iopamidol]
Difference [1, 25]: −0.15
Cholesterol-free [1, 26]: 1.136
Complete [1, 15]: 0.9871
Cholesterol-free media + simvastatin (0.04 μM) [2, 9]: 1.516
Complete Media [2, 10]: 1.092
Difference [2, 11]: −0.42

CCC(Cc1c(I)cc(I)c(N)c1I)C(=O)O (centres unmarked) [Iopanoic acid]
Difference [1, 25]: −0.10
Cholesterol-free [1, 26]: 1.02
Complete [1, 15]: 0.9191
Cholesterol-free media + simvastatin (0.04 μM) [2, 14]: 1.115
Complete Media [2, 15]: 1.353
Difference [2, 19]: 0.24

COCC(=O)Nc1c(I)c(C(=O)NCC(O)CO)c(I)c(C(=O)N(C)CC(O)CO)c1I (centres unmarked) [Iopromide]
Cholesterol-free [1, 3]: 0.9462
Complete [1, 4]: 1.578
Difference [1, 5]: 0.63
Cholesterol-free media + simvastatin (0.04 μM) [2, 6]: 0.8199
Complete Media [2, 7]: 0.7955
Difference [2, 8]: −0.02

CNC(=O)c1c(I)c(NC(C)=O)c(I)c(C(=O)O)c1I [Iotalamic acid]
Difference [1, 12]: −0.29
Cholesterol-free [1, 13]: 1.385
Complete ([1]; NCI-H292 cells, complete media): 1.091
Cholesterol-free media + simvastatin (0.04 μM) [2, 9]: 1.459
Complete Media [2, 10]: 0.9854
Difference [2, 11]: −0.47

O=C(NCC(O)CO)c1c(I)c(C(=O)NCC(O)CO)c(I)c(N(CCO)C(=O)CO)c1I (centres unmarked) [Ioversol]
Difference [1, 25]: −0.10
Cholesterol-free [1, 26]: 1.162
Complete [1, 15]: 1.064
Cholesterol-free media + simvastatin (0.04 μM) [2, 27]: 1.012
Complete Media [2, 28]: 1.097
Difference [2, 19]: 0.09

CC(=O)N(CC(O)CO)c1c(I)c(C(=O)NCCO)c(I)c(C(=O)NCC(O)CO)c1I (centres unmarked) [Ioxilan]
Difference [1, 12]: 0.04
Cholesterol-free [1, 3]: 1.015
Complete [1, 4]: 1.05
Cholesterol-free media + simvastatin (0.04 μM) [2, 9]: 1.221
Complete Media [2, 10]: 0.868
Difference [2, 11]: −0.35

OC[C@H]1O[C@@H](c2ccc(F)c(Cc3cc4ccccc4s3)c2)[C@H](O)[C@@H](O)[C@@H]1O [Ipragliflozin]
Difference [1, 16]: −0.87
Cholesterol-free [1, 17]: 1.769
Complete [1, 18]: 0.8999
Cholesterol-free media + simvastatin (0.04 μM) [2, 27]: 0.8889
Complete Media [2, 28]: 0.9547
Difference [2, 19]: 0.07

CC(C)[N+]1(C)[C@@H]2CC[C@H]1CC(OC(=O)C(CO)c1ccccc1)C2.[Br-] (some centres unmarked) [Ipratropium (bromide)]
Cholesterol-free [1, 13]: 1.233
Complete ([1]; NCI-H292 cells, complete media): 0.8969
Difference [1, 22]: −0.34
Cholesterol-free media + simvastatin (0.04 μM) [2, 9]: 1.536
Difference [2, 24]: −0.39
